This is an account of results in patent US4605744A, “Imidazole derivatives” (Hoffmann-La Roche Inc., priority 1985, dated 1986).

In test [1] the test system is P. mirabilis 190. Briefly: In vivo antibacterial activity (PD50). The note with it: Proteus mirabilis, sc, challenge 10^4 LD50s, 1 treatment, Table 11.
In test [2] the test system is S. pneumoniae SC. Briefly: In vivo antibacterial activity (PD50). The note with it: Streptococcus pneumoniae.
The subject of test [3] is E. coli 387-1. Briefly: In vivo antibacterial activity (PD50). The note with it: Escherichia coli, 3871; sc; challenge 127 LD50s; 1 treatment; Table 11.
Test [4] relates to S. pneumoniae 6302. The test is described as follows: In vivo antibacterial activity (PD50). The note with it: Streptococcus pneumoniae, 6302, sc.
Test [5] relates to K. pneumoniae HE7. Briefly: In vivo antibacterial activity (PD50). The note with it: Klebsiella pneumoniae, HE7, sc, 2 treatments.
In test [6] the test system is E. cloacae 214. Briefly: In vivo antibacterial activity (PD50). The note with it: Enterobacter cloacae, sc, challenge 3.8 LD50s, 2 treatments, Table 11. The procedure:
(§1) In Tables 9-14, the results of the in vivo activity against certain microorganisms of compounds I, M and N as given. […] The results in these Tables and the PD50 's were determined by the procedure set forth on page 160 in Beskid et al., Antimicrobial Agents and Chemotherapy, Vol. 20, No. 2 pp. 159-167 (Aug. 1981) for "in vivo studies".

The subject of test [7] is S. schottmuelleri. The test is described as follows: In vivo antibacterial activity (PD50). The note with it: sc; challenge 163 LD50s; 1 treatment; Table 11. Here is the method:
as §1

Test [8] has as its system E. coli 257. The test is described as follows: In vivo antibacterial activity (PD50). The note with it: Escherichia coli, 257, sc.
The subject of test [9] is S. marcescens S3. Briefly: In vivo antibacterial activity (PD50). The note with it: Serratia marcescens, S3, sc, read-out: PD50.
The test system of test [10] is S. aureus Giorgio. The test is described as follows: In vivo antibacterial activity (PD50). The note with it: Staphylococcus aureus; sc; Table 9.
Test [11] relates to E. aerogenes 83. The test is described as follows: In vivo antibacterial activity (PD50). The note with it: Klebsiella aerogenes, sc, Table 9.
The subject of test [12] is P. aeruginosa POW151. The test is described as follows: In vivo antibacterial activity (PD50). The note with it: Pseudomonas aeruginosa, sc, Table 9.
Test [13] concerns P. vulgaris 100. Briefly: In vivo antibacterial activity (PD50). The note with it: Proteus vulgaris; sc; challenge 100 LD50s; 1 treatment; Table 11.
In test [14] the test system is S. pneumoniae 6301. Briefly: In vivo antibacterial activity (PD50). The note with it: Streptococcus pneumoniae, sc, Table 9.
For test [15], the system named is K. pneumoniae 8357. Briefly: animal or person. In kind it is in vivo. The note with it: Klebsiella pneumoniae, 8357, sc, read-out: PD50.
Test [16] deals with C. freundii 8ASM. Briefly: In vivo antibacterial activity (PD50). The note with it: Citrobacter freundii, sc, challenge 1000 LD50s, 1 treatment, Table 11.
In test [17] the test system is E. coli 4. Briefly: In vivo antibacterial activity (PD50). The note with it: Escherichia coli, sc, Table 9.
For test [18], the system named is S. marcescens S5. Briefly: In vivo antibacterial activity (PD50). The note with it: Serratia marcescens, sc, Table 9.
The subject of test [19] is S. pyogenes 4. The test is described as follows: In vivo antibacterial activity (PD50). The note with it: Streptococcus pyogenes, 4, sc, read-out: PD50.
The test system of test [20] is S. pyogenes 503-782. Briefly: In vivo antibacterial activity (PD50). The note with it: Streptococcus pyogenes, 503782; sc; Table 9.
Test [21] relates to E. cloacae 4633. Briefly: In vivo activity alone and in combination (PD50, FIC). The note with it: Enterobacter cloacae, 4633; sc; alone; read-out: PD50 (alone). The procedure:
as §1
(§2) In the Tables, the fractional inhibitory concentration index (FIC) for synergistic combination of a compound of this invention (X) with known antibiotic compound (Y) is determined by the following formula:
(§3) FIC=(PD50 (X combination)/PD50 (X alone)+(PD50 (Y
(§4) combination)/PD50 (Y alone)
(§5) An FIC of ≤0.60 is indicative of synergy. The synergy rating in the Tables is as follows:
(§6) In the combination, the parts are parts by weight, i.e. 10 to 1 is 10 parts by weight to 1 part by weight.

Test [22] deals with K. pneumoniae 39. The test is described as above. The note with it: Klebsiella pneumoniae, 39, sc, alone. The procedure:
as §1, §2, §3, §4, §5, §6

For test [23], the system named is E. coli BC5524. The test is described as above. The note with it: Escherichia coli, BC5524; sc; alone; read-out: PD50 (alone). Here is the method:
as §1, §2, §3, §4, §5, §6

The subject of test [24] is E. coli 736. Described as above. The note with it: Escherichia coli, sc, alone. Here is the method:
as §1, §2, §3, §4, §5, §6

Test [25] relates to K. pneumoniae R2296. The description is as above. The note with it: Klebsiella pneumoniae, sc, alone. Here is the method: as §1, §2, §3, §4, §5, §6
For test [26], the system named is K. pneumoniae 503-990A. Described as above. The note with it: Klebsiella pneumoniae, 503990A, sc, alone. Here is the method:
as §1, §2, §3, §4, §5, §6

[27] abbreviates: challenge 1000 LD50s, 1 treatment, Table 11.
Where [28] appears, read: challenge >10^4 LD50s, 1 treatment, Table 10.
Setting [29] is: challenge >10^4 LD50s, 1 treatment, Table 11.
[30] abbreviates: sc, challenge 100 LD50s, 2 treatments, Table 10.

Structures are written as SMILES. Counter-ions that a name gives are not always drawn. Like-named read-outs stand apart in the source and are kept apart here.

Take `CC1(C)S[C@@H]2[C@H](/N=C/N3CCCCCC3)C(=O)N2[C@H]1C(=O)O` [Amdinocillin, amdinocillin, reference compound]: the ED50 was 117 mg/kg in test [1]; less than 2 mg/kg in [2] (Table 9, read-out: PD50); less than 0.2 mg/kg in [3]; 204 mg/kg in [4] (Table 9); more than 250 mg/kg in test [4] (setting [27]); more than 250 mg/kg in test [5] (challenge 750 LD50s, Table 10). Moreover, the ED50 was more than 250 mg/kg in test [5] (challenge 1000 LD50s, Table 11); less than 10 mg/kg in test [6]; 0.25 mg/kg in test [7]; less than 0.025 mg/kg in test [8] (Table 9); less than 1 mg/kg in test [8] (setting [28]); less than 2 mg/kg in [8] (setting [29]). For the same compound, the ED50 is 2.7 mg/kg in test [9]; more than 250 mg/kg in [10]; more than 250 mg/kg in test [11]; 143 mg/kg in test [12]; 45 mg/kg in test [13]; 192 mg/kg in test [14]. In addition, the ED50 in test [15] is 6.7 mg/kg; in [16], 0.76 mg/kg; in test [17], 4.6 mg/kg; in test [18], more than 250 mg/kg; in test [19] (sc, Table 9), 60 mg/kg; in test [19] (sc, challenge 3.3 LD50s, 2 treatments, Table 11), 11 mg/kg. In addition, the ED50 in test [19] (setting [30]) was 8.1 mg/kg; in [20], 80 mg/kg.
As for `CC1(C)S[C@@H]2[C@H](N=CN3CCC(CCCn4ccnc4N)CC3)C(=O)N2[C@H]1C(=O)O` [I, [2S-(2alpha,5alpha,6beta)]-6-[[[4-[3-(2-amino-1H-imidazol-1-yl)propyl]piperidinyl]methylene]amino]-3,3-dimethyl-7-oxo-4-thia-1-azabicyclo[3.2.0]hpetane-2-carboxylic acid hydrochloride], the ED50 is 3.6 mg/kg in test [2] (read-out: PD50); 202 mg/kg in [4] (Table 9); less than 0.2 mg/kg in test [8] (Table 9); more than 250 mg/kg in [10]; more than 250 mg/kg in test [11]; 6.4 mg/kg in test [21]. Moreover, the ED50 in test [22] is 115 mg/kg; in test [23], more than 250 mg/kg; in test [24] it was 0.05 mg/kg; in test [25] it was more than 250 mg/kg; in test [26] (Table 14 line (1)) it was less than 2 mg/kg; in [26] (Table 14 line (2)), less than 2 mg/kg. The ED50 in [12] was 111 mg/kg; in test [14] it was more than 250 mg/kg; in [17] it was 1.9 mg/kg; in [18] it was more than 250 mg/kg; in [19] (sc, Table 9), 11 mg/kg; in test [20], 59 mg/kg.
As to `CC1(C)S[C@@H]2[C@H](N=CN3CCC(CC4=NCCN4)CC3)C(=O)N2[C@H]1C(=O)O` [M, [2S-(2alpha,5alpha,6beta)]-6-[[[4-[(4,5-dihydro-1H-imidazol-2-yl)methyl]-1-piperidinyl]methylene]amino]-3,3-dimethyl-7-oxo-4-thia-1-azabicyclo[3.2.0]heptane-2-carboxylic acid hydrochloride], the ED50 in [5] (challenge 750 LD50s, Table 10) was 71 mg/kg; in test [8] (setting [28]) it was 1.5 mg/kg; in test [21], 34 mg/kg; in test [22], 5 mg/kg; in test [23] it was 80 mg/kg; in [25] it was more than 250 mg/kg. For the same compound, the ED50 in [26] is 9.4 mg/kg; in test [19] (setting [30]) it was less than 2 mg/kg.
Consider `CC1(C)S[C@@H]2[C@H](N=CN3CCC(CCC4=NCCN4)CC3)C(=O)N2[C@H]1C(=O)O` [N, [2S-(2alpha,5alpha,6beta)]-6-[[[4-[4,5-dihydro-1H-imidazol-2-yl)ethyl]-1-piperidinyl]methylene]amino]-3,3-dimethyl-7-oxo-4-thia-1-azabicyclo[3.2.0]heptane-2-carboxylic acid hydrochloride], for which the ED50 in test [1] was 140 mg/kg; in [3] it was less than 0.2 mg/kg; in test [4] (setting [27]), 78 mg/kg; in test [5] (challenge 1000 LD50s, Table 11) it was more than 250 mg/kg; in [6] it was less than 10 mg/kg; in test [7] it was less than 0.05 mg/kg. Further, the ED50 in test [8] (setting [29]) was less than 1 mg/kg; in test [9], less than 0.5 mg/kg; in [21], 12 mg/kg; in test [22] it was 18 mg/kg; in [23] it was 114 mg/kg; in test [25], more than 250 mg/kg. For the same compound, the ED50 is 5.5 mg/kg in test [26]; 67 mg/kg in [13]; 6.2 mg/kg in [15]; 0.22 mg/kg in test [16]; 4.3 mg/kg in [19].
